According to patent publication US5159081A, “Intermediates of peripherally selective N-carbonyl-3,4,4-trisubstituted piperidine opioid antagonists” (Eli Lilly and Company, priority 1991, dated 1992):
Where a name gives a salt, the structure may show the parent alone. Read-outs that look alike come from different tables or passages of the source.

Key:
mu receptor = target: T1, mu receptor (Rattus norvegicus, UniProt P33535); test: Naloxone [3H] opioid receptor binding assay (mu receptor); design: species or system rat (male Sprague Dawley); conditions: 20 min; for Ki: rat whole brain minus cerebellum, pH 7.4, 37° C., read-out: Ki
T1 construct: The brain tissue, rat whole brain minus cerebellum for mu was homogenized; from tissue; host or cells: brain minus cerebellum of male Sprague Dawley rats, homogenate fraction
T1 sequence (P33535 whole entry): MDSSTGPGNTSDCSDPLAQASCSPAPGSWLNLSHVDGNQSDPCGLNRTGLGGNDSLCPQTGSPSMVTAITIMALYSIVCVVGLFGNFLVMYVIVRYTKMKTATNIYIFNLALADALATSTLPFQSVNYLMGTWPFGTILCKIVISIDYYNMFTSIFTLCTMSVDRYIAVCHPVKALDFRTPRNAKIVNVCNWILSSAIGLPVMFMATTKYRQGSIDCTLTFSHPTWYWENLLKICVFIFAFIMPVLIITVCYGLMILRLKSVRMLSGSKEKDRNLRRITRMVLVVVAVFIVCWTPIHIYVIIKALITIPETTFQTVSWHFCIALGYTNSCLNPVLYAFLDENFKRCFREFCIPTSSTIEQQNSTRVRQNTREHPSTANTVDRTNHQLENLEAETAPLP

[1] = target: peripheral opioid receptors (Mus musculus, UniProt P42866); test: mouse diarrhea test: precipitated diarrhea in morphine-maintained mice (peripheral opioid activity); format: in vivo; conditions: mouse diarrhea test, morphine-maintained mice, subcutaneous or oral, 30 min observation
Sequence of peripheral opioid receptors (Mus musculus, UniProt P42866) (P42866 whole entry): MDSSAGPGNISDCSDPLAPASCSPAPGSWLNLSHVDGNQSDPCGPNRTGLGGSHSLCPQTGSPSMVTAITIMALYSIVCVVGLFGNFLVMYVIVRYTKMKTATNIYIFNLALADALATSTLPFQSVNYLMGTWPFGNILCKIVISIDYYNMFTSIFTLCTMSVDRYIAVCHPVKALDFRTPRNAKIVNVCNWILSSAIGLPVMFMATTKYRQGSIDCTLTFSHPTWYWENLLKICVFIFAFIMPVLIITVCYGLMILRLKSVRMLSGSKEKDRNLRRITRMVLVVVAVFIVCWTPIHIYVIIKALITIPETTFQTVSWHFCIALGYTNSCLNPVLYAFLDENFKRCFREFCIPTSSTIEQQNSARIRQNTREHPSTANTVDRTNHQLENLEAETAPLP

[2] = test system: peripheral opioid receptors; test: as above; format: in vivo; conditions: AD50 mouse writhing / ED50 mouse diarrhea; higher = greater relative peripheral antagonism
opioid receptor = target: T2, opioid receptor (Mus musculus, UniProt P42866); test: in vivo; design: species or system CF-1 male mice; conditions: sc; mouse writhing test; […]; s.c. 20 min before acetic acid; read-out: AD50 (the source's name)
T2 construct: Five CF-1 male mice (Charles River, Portage, MI); from tissue; host or cells: living CF-1 male mice (whole animal, endogenous receptor)
T2 sequence (P42866 whole entry): as above

[3] = pH 7.4, read-out: % displacement at 10 nM
[4] = pH 7.4, read-out: % displacement at 100 nM
[5] = pH 7.4, 10 nM test compound, [3H]naloxone 0.5 nM, mu receptor, read-out: % displacement at 10 nM
[6] = pH 7.4, 100 nM test compound, [3H]naloxone 0.5 nM, mu receptor, read-out: % displacement at 100 nM

SMILES | inhibition at 0.01 µM (mu receptor; [3]) [%] | inhibition at 0.1 µM (mu receptor; [4]) [%] | Ki (mu receptor; [3H]naloxone 0.5 nM) [nM] | ED50 [1] [mg/kg] | Ratio (ratio of AD50 to ED50) [2] | ED50 (opioid receptor) [mg/kg] | inhibition at 0.01 µM (mu receptor; [5]) [%] | inhibition at 0.1 µM (mu receptor; [6]) [%] | ED50 ([1]; 0.5 h, read-out: ED50) [mg/kg]
CCOC(=O)CCC(=O)NC(CCN1CC[C@@](C)(c2cccc(O)c2)[C@@H](C)C1)CC(C)C (single isomer, unassigned) [Example 2A, 4-[[1-[2-[4-(3-hydroxyphenyl)-3,4-dimethyl-1-piperidinyl]-ethyl]-3-methylbutyl)amino]-4-oxobutanoic acid ethyl ester] | 98 | 100 | 0.64 | 0.29 | 29 | 8.4 | – | – | –
CC(C)COC(=O)CCCC(=O)N[C@@H](CC1CCCCC1)CN1CC[C@](C)(c2cccc(O)c2)[C@H](C)C1 [Example 55] | – | – | – | – | > 800 | > 40 | 40 | 86 | 0.05
C[C@H]1CN(C[C@H](CC2CCCCC2)NC(=O)CCCC(=O)O)CC[C@@]1(C)c1cccc(O)c1 [Example 45D] | 82 | 94 | 0.56 | 0.029 | > 1379 | > 40 | – | – | –
CC(C)COC(=O)CCCC(=O)N[C@@H](CC1CCCCC1)CN1CC[C@@](C)(c2cccc(O)c2)[C@@H](C)C1 [Example 56] | – | – | – | – | 20000 | > 40 | 61 | 92 | 0.002
CCOC(=O)CCC(=O)NC(CCN1CC[C@@](C)(c2cccc(O)c2)[C@@H](C)C1)CC(C)C (stereo partly shown) [Example 2B, 4-[[1-[2-[4-(3-hydroxyphenyl)-3,4-dimethyl-1-piperidinyl]-ethyl]-3-methylbutyl)amino]-4-oxobutanoic acid ethyl ester] | 93 | 99 | 1.2 | 0.19 | 54 | 10.2 | – | – | –
C[C@@H]1CN(C[C@@H](CC2CCCCC2)NC(=O)CCCC(=O)O)CC[C@]1(C)c1cccc(O)c1 [Example 48D] | 30 | 78 | – | 0.05 | > 800 | > 40 | – | – | –
CCCOC(=O)CCCC(=O)N[C@@H](CC1CCCCC1)CN1CC[C@@](C)(c2cccc(O)c2)[C@@H](C)C1 [Example 54] | 81 | 96 | 5.07 | 0.0015 | 18000 | 27 | – | – | –
CNC(=O)CC(=O)N(CCN1CC[C@@](C)(c2cccc(O)c2)[C@@H](C)C1)C1CCCCC1 (relative stereo) [Example 36, N-Methyl-3-oxo-3-((2-(trans-4-(3-hydroxyphenyl)-3,4-dimethyl-1-piperidinyl)ethyl)cyclohexylamino)propanamidemonohydrochloride monohydrate] | 85 | 99 | 3.01 | 0.39 | 8 | 2.9 | – | – | –
CNC(=O)COC(=O)CCCC(=O)N[C@@H](CC1CCCCC1)CN1CC[C@@](C)(c2cccc(O)c2)[C@@H](C)C1 [Example 63] | 87 | 99 | 2.13 | 0.003 | 4000 | 12 | – | – | –
C[C@@H]1CN(C[C@H](CC2CCCCC2)NC(=O)CCCC(=O)O)CC[C@]1(C)c1cccc(O)c1 [Example 47D] | 85 | 95 | 1.55 | 0.01 | > 4000 | > 40 | – | – | –
CCOC(=O)CCCC(=O)N(CCN1CC[C@@](C)(c2cccc(O)c2)[C@@H](C)C1)C1CCCCC1 (relative stereo) [Example 32, 5-(Cyclohexyl-(2-(trans-4-(3-hydroxyphenyl)-3,4-dimethyl-1-piperidinyl)ethyl)amino)-5-oxopentanoic acid ethyl ester monohydrochloride] | – | – | – | – | 59 | 9.4 | 40 | 100 | 0.16
C[C@H]1CN(CCN(C(=O)CC(=O)O)C2CCCCC2)CC[C@@]1(C)c1cccc(O)c1 (relative stereo) [Example 21, 3-(cyclohexyl-(2-(trans-4-(3-hydroxyphenyl)-3,4-dimethyl-1-piperidinyl)ethyl)amino)-3-oxopropanoic acid monohydrate] | – | – | – | – | 71 | 17.1 | 53 | 80 | 0.073
CCOC(=O)CC(=O)N[C@H](Cc1ccccc1)CN1CC[C@@](C)(c2cccc(O)c2)[C@@H](C)C1 [Example 10, Ethyl trans-(3R,4R,R)-3-((2-(4-(3-hydroxyphenyl)-3,4-dimethyl-1-piperidinyl)-1-(D-(phenylmethyl)ethyl)amino))-3-oxopropionate hydrochloride] | 61 | 94 | 1.46 | 0.12 | 78 | 9.3 | – | – | –
